Source: the supplement of paper PMC11281043

What was measured:
Conditions in all cases: exposure: 6-8 hpf to 5 dpf, scored at 6 dpf
Danio rerio embryo/larva [1] = experiment: BMC general abnormality; higher = less potent
Experimental: (§1)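 Zebrafish embryos (with chorion) were exposed from 6-8 hpf to each PFAS (8-point half-log series, top concentration up to 100 uM, 0.4% DMSO, sealed plates, 26 C; n = 6 embryos per concentration), rinsed at 5 dpf and scored at 6 dpf by two blinded observers for mortality, hatching and malformations. Endpoint scores are the % of living larvae affected (dead larvae excluded; […]). Curves were fitted with tcpl (cutoff 16%), and the BMC is the concentration at a benchmark response of 21.6%.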

Danio rerio embryo/larva [2] = experiment: max % larvae with pigmentation defects across tested concentrations; higher = more toxic
Danio rerio embryo/larva [3] = experiment: max % larvae with edema across tested concentrations; higher = more toxic; extreme values may be limits of the assay
Danio rerio embryo/larva [4] = experiment: max % larvae with tail defects across tested concentrations; higher = more toxic; extreme values may be limits of the assay
Danio rerio embryo/larva [5] = experiment: max % larvae with blood pooling across tested concentrations; higher = more toxic; extreme values may be limits of the assay
Danio rerio embryo/larva [6] = experiment: max % larvae generally abnormal across tested concentrations; higher = more toxic; extreme values may be limits of the assay
Danio rerio embryo/larva [7] = experiment: max % larvae with spinal defects across tested concentrations; higher = more toxic; extreme values may be limits of the assay
Danio rerio embryo/larva [8] = experiment: max % larvae with abnormal position across tested concentrations; higher = more toxic; extreme values may be limits of the assay
Danio rerio embryo/larva [9] = experiment: max % larvae with craniofacial defects across tested concentrations; higher = more toxic; extreme values may be limits of the assay
Danio rerio embryo/larva [10] = experiment: max % larvae with uninflated swim bladder across tested concentrations; higher = more toxic; extreme values may be limits of the assay
Danio rerio embryo/larva [11] = experiment: BMC any abnormality; max tested concentration (log10 uM): 2; higher = less potent
Experimental: as §1

Danio rerio embryo/larva [12] = experiment: max % larvae unhatched across tested concentrations; max tested concentration (log10 uM): 2; higher = more toxic
Danio rerio embryo/larva [13] = experiment: max % larvae dead across tested concentrations; max tested concentration (log10 uM): 2; higher = more toxic; extreme values may be limits of the assay
Danio rerio embryo/larva [14] = experiment: max % larvae with any abnormality across tested concentrations; max tested concentration (log10 uM): 2; higher = more toxic; extreme values may be limits of the assay
Danio rerio embryo/larva [15] = experiment: BMC edema; higher = less potent
Experimental: as §1

Danio rerio embryo/larva [16] = experiment: BMC swim bladder non-inflation; higher = less potent
Experimental: as §1

[17] = max tested concentration (log10 uM): 2
[18] = max tested concentration (log10 uM): 0

SMILES	BMC general abnormality (Danio rerio embryo/larva [1]) [µM]	max % larvae (Danio rerio embryo/larva [2]) [%]	max % larvae (Danio rerio embryo/larva [3]) [%]	max % larvae (Danio rerio embryo/larva [4]) [%]	max % larvae (Danio rerio embryo/larva [5]) [%]	max % larvae generally abnormal across tested concentrations (Danio rerio embryo/larva [6]) [%]	max % larvae (Danio rerio embryo/larva [7]) [%]	max % larvae (Danio rerio embryo/larva [8]) [%]	max % larvae (Danio rerio embryo/larva [9]) [%]	max % larvae (Danio rerio embryo/larva [10]) [%]	BMC any abnormality (Danio rerio embryo/larva [11]) [µM]	max % larvae unhatched across tested concentrations (Danio rerio embryo/larva [12]) [%]	max % larvae dead across tested concentrations (Danio rerio embryo/larva [13]) [%]	max % larvae (Danio rerio embryo/larva [14]) [%]	BMC edema (Danio rerio embryo/larva [15]; [17]) [µM]	BMC swim bladder non-inflation (Danio rerio embryo/larva [16]; [17]) [µM]	BMC edema (Danio rerio embryo/larva [15]; [18]) [µM]	BMC swim bladder non-inflation (Danio rerio embryo/larva [16]; [18]) [µM]
O=C(O)CCC(F)(F)C(F)(F)C(F)(F)C(F)(F)C(F)(F)F [2H,2H,3H,3H-Perfluorooctanoic acid] (max tested concentration (log10 uM): 1.47712)	9.38	0	100	25	100	100	12.5	25	100	100	–	–	–	–	–	–	–	–
O=C(O)CCC(F)(F)C(F)(F)C(F)(F)C(F)(F)C(F)(F)C(F)(F)F [3-(Perfluorohexyl)propanoic acid] (max tested concentration (log10 uM): 1)	9.01	0	25	12.5	0	25	0	4.17	16.7	16.7	–	–	–	–	–	–	–	–
O=C(O)CCC(F)(F)C(F)(F)C(F)(F)F [3:3 Fluorotelomer carboxylic acid]	–	–	–	–	–	–	–	–	–	–	87.8	0	0	25	–	–	–	–
OCC(F)(F)C(F)(F)C(F)(F)C(F)(F)C(F)(F)C(F)(F)F [6:1 Fluorotelomer alcohol]	–	–	–	–	–	–	–	–	–	–	73.3	0	–	75	94.1	–	–	–
OCCCC(F)(F)C(F)(F)C(F)(F)C(F)(F)C(F)(F)C(F)(F)C(F)(F)F [7:3 Fluorotelomer alcohol]	–	–	–	–	–	–	–	–	–	–	38.3	0	–	45.8	–	99	–	–
OCCCC(F)(F)C(F)(F)C(F)(F)C(F)(F)C(F)(F)C(F)(F)C(F)(F)F [7:3 Fluorotelomer alcohol] (max tested concentration (log10 uM): 2)	44.8	0	19.4	0	16.7	22.2	0	0	11.1	22.2	–	–	–	–	–	–	–	–
O=C(O)C(F)(F)C(F)(F)C(F)(F)C(F)(F)C(F)(F)C(F)(F)C(F)(F)C(F)(F)Cl [9-Chloro-perfluorononanoic acid] (max tested concentration (log10 uM): 2)	9.23	0	100	75	41.7	100	50	25	100	100	–	–	–	–	–	–	–	–
O=C(O)C(F)(F)C(F)(F)C(F)(F)C(F)(F)C(F)(F)C(F)(F)C(F)(F)C(F)(F)C(F)(F)C(F)F [11-H-Perfluoroundecanoic acid] (max tested concentration (log10 uM): 1.47712)	12.6	0	100	100	100	100	0	50	100	100	–	–	–	–	–	–	–	–
FC(F)C(F)(F)COCC1CO1 (stereo not given) [((2,2,3,3-Tetrafluoropropoxy)methyl)oxirane]	–	–	–	–	–	–	–	–	–	–	26.5	0	0	91.7	32.6	27.7	–	–
O=P(O)(O)CCC(F)(F)C(F)(F)C(F)(F)C(F)(F)C(F)(F)C(F)(F)C(F)(F)C(F)(F)F [((Perfluorooctyl)ethyl)phosphonic acid] (max tested concentration (log10 uM): 2)	1.31	0	50	5	0	60	0	50	20	100	–	–	–	–	–	–	–	–
CC(C)(C)C(=O)CC(=O)C(F)(F)C(F)(F)C(F)(F)F [(Heptafluorobutanoyl)pivaloylmethane] (max tested concentration (log10 uM): 2)	25.6	0	66.7	0	20	66.7	0	25	83.3	100	–	–	–	–	–	–	–	–
CCNS(=O)(=O)C(F)(F)C(F)(F)C(F)(F)C(F)(F)C(F)(F)C(F)(F)C(F)(F)C(F)(F)F [N-Ethylperfluorooctane sulfonamide] (max tested concentration (log10 uM): 1)	2.91	0	41.7	0	16.7	58.3	0	8.33	8.33	83.3	–	–	–	–	–	–	–	–
CNS(=O)(=O)C(F)(F)C(F)(F)C(F)(F)C(F)(F)C(F)(F)C(F)(F)C(F)(F)C(F)(F)F [N-Methylperfluorooctanesulfonamide]	–	–	–	–	–	–	–	–	–	–	0.702	0	–	95.8	20.1	0.439	–	–
O=C(Cl)C(F)(F)C(F)(F)C(F)(F)C(F)(F)C(F)(F)C(F)(F)C(F)(F)C(F)(F)F [Perfluorononanoyl chloride]	–	–	–	–	–	–	–	–	–	–	25	0	100	100	–	–	–	–
NS(=O)(=O)C(F)(F)C(F)(F)C(F)(F)C(F)(F)C(F)(F)C(F)(F)C(F)(F)C(F)(F)F [Perfluorooctanesulfonamide]	–	–	–	–	–	–	–	–	–	–	0.261	0	–	100	–	–	0.563	0.313
O=S(=O)(O)C(F)(F)C(F)(F)C(F)(F)C(F)(F)C(F)(F)C(F)(F)F [Potassium perfluorohexanesulfonate]	–	–	–	–	–	–	–	–	–	–	31.3	0	–	90.9	–	–	–	–
